What is called IC50 is the concentration needed to halve the response being measured. A low value points to greater potency in that assay.

The text below walks through data of PMC8001506 (Marine Drugs, 2021).

The target of one test is rat α2β2 nAChR (Rattus norvegicus, UniProt P12389+P12390). Put plainly: cell-based. The class given is cell-based.
A further test has as its target rat α2β4 nAChR (Rattus norvegicus, UniProt P12389+P12392). Briefly: cell-based. It counts as cell-based.
A further test deals with human α9α10 nAChR (Homo sapiens, UniProt Q9GZZ6+Q9UGM1). Briefly: cell-based. The class given is cell-based.
Sequence of human α9α10 nAChR (Q9UGM1 26-479 limits assumed): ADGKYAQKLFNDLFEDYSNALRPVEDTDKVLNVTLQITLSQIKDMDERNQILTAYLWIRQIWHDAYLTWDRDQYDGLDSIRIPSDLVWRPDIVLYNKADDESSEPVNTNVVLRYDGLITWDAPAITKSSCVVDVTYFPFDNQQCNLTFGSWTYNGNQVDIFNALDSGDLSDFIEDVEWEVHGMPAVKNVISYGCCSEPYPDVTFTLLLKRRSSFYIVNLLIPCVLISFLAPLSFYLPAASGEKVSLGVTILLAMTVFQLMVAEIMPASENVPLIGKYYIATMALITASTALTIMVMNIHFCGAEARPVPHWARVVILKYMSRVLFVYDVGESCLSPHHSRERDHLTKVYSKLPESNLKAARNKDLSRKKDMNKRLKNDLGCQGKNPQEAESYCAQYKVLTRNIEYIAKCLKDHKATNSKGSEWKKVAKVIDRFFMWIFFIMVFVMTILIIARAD
Sequence of human α9α10 nAChR (Q9GZZ6 25-450 limits assumed): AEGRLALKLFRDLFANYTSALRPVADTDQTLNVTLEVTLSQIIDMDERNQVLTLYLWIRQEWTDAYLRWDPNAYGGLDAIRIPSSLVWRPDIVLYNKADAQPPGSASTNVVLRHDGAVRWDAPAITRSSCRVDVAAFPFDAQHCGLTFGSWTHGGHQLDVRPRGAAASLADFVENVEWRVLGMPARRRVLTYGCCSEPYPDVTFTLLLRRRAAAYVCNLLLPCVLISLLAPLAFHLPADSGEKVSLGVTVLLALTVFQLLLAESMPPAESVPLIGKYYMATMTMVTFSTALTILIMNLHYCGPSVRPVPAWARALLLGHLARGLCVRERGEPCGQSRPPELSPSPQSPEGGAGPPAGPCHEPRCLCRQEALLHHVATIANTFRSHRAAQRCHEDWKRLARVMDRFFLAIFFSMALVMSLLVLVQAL
Another test has as its target rat α4β4 nAChR (Rattus norvegicus, UniProt P09483+P12392). Put plainly: cell-based. It counts as cell-based.
Another test has as its target rat α4β2 nAChR (Rattus norvegicus, UniProt P09483+P12390). Put plainly: cell-based. It counts as cell-based.
Another test deals with rat α6/α3β2β3 nAChR (Rattus norvegicus, UniProt P04757+P12390+P12391+P43143). Put plainly: cell-based.
In another test the target is rat α3β2 nAChR (Rattus norvegicus, UniProt P04757+P12390). Briefly: cell-based.
Sequence of rat α3β2 nAChR (P04757 26-499 limits assumed): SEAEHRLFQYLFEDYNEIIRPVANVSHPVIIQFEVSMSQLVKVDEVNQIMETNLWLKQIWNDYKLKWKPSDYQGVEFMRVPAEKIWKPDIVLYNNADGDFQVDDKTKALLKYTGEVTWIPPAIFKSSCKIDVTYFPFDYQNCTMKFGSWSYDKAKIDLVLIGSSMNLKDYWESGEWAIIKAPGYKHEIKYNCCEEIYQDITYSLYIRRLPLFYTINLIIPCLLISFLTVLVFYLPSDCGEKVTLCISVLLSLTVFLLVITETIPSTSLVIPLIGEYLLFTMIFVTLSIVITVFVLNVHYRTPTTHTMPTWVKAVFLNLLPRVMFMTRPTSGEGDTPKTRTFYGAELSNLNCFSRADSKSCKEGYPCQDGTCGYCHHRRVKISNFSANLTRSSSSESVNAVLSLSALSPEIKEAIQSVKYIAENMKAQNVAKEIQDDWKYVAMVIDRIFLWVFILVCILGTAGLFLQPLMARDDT
Sequence of rat α3β2 nAChR (P12390 25-500 limits assumed): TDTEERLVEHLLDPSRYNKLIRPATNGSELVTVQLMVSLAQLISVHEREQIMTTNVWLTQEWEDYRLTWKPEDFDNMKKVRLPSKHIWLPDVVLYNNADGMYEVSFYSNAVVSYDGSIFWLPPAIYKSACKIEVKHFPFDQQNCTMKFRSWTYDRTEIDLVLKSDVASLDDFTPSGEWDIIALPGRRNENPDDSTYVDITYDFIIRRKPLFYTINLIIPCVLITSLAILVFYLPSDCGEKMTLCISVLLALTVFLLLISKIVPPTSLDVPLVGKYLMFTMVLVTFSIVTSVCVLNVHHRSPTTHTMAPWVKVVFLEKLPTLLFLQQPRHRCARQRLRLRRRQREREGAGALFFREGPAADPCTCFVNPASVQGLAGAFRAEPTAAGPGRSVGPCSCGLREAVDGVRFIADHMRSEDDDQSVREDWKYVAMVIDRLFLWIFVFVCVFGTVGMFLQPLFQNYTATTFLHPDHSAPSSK
The subject of test [1] is common mammalian nAChR combinations. It counts as cell-based.
The target in the next test is rat α3β4 nAChR (Rattus norvegicus, UniProt P04757+P12392). Briefly: cell-based. The class given is cell-based.
Sequence of rat α3β4 nAChR (P04757 26-499 limits assumed): as the sequence (P04757 26-499 limits assumed) above
Sequence of rat α3β4 nAChR (P12392 21-495 limits assumed): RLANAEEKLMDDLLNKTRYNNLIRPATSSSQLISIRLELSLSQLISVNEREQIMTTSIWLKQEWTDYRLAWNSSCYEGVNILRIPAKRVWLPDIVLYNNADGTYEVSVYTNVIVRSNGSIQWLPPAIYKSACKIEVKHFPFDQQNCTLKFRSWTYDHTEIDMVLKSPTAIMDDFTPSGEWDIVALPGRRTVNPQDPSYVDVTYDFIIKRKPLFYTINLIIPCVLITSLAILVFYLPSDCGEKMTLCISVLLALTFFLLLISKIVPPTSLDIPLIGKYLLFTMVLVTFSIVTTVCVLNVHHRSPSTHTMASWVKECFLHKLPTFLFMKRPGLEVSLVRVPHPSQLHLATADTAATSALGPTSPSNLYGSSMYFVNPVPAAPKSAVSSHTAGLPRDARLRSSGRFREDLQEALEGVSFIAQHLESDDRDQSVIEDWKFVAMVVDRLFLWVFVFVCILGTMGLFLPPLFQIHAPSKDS
A further test has as its target rat α7 nAChR (Rattus norvegicus, UniProt Q05941). Put plainly: cell-based. The class given is cell-based.

“Also recorded” adds a separate entry of the source. Where a SMILES comes first, the peptide text is derived from it. Bridges are numbered along the chain shown (N, C = ends). A value given as a limit tells only on which side of the number the result lay.

Sequence of rat α4β2 nAChR (P09483 31-630 limits assumed): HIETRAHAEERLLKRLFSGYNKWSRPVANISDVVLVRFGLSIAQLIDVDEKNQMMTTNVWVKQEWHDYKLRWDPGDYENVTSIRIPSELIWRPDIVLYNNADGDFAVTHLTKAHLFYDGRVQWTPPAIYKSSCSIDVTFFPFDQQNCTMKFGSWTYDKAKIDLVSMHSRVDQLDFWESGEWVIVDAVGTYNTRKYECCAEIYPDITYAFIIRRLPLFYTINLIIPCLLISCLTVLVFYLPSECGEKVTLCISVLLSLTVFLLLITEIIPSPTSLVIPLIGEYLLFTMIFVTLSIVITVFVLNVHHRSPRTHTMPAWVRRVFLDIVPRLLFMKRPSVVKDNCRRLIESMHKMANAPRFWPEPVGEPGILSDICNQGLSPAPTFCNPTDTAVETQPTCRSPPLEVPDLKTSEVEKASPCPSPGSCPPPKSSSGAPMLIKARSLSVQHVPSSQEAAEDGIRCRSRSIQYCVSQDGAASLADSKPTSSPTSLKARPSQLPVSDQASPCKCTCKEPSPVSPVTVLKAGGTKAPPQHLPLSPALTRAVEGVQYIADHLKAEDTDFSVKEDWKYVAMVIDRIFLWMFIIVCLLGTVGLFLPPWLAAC
Sequence of rat α4β2 nAChR (P12390 25-500 limits assumed): as the sequence (P12390 25-500 limits assumed) above
Sequence of rat α4β4 nAChR (P09483 31-630 limits assumed): as the sequence (P09483 31-630 limits assumed) above
Sequence of rat α4β4 nAChR (P12392 21-495 limits assumed): as the sequence (P12392 21-495 limits assumed) above
Sequence of rat α7 nAChR (Q05941 23-502 limits assumed): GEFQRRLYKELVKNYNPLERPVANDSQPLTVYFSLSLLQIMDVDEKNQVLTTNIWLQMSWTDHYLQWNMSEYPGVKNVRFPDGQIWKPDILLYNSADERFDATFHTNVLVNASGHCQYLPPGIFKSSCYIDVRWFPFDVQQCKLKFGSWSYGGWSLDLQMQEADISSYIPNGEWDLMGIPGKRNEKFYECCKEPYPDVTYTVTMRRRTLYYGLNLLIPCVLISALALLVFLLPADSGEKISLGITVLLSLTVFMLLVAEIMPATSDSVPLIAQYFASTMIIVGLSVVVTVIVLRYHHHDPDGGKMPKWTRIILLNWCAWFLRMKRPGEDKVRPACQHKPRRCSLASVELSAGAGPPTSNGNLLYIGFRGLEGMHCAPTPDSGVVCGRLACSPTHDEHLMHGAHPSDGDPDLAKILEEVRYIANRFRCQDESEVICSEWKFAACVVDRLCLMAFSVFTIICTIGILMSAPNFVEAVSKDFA
Sequence of rat α2β2 nAChR (P12389 28-511 limits assumed): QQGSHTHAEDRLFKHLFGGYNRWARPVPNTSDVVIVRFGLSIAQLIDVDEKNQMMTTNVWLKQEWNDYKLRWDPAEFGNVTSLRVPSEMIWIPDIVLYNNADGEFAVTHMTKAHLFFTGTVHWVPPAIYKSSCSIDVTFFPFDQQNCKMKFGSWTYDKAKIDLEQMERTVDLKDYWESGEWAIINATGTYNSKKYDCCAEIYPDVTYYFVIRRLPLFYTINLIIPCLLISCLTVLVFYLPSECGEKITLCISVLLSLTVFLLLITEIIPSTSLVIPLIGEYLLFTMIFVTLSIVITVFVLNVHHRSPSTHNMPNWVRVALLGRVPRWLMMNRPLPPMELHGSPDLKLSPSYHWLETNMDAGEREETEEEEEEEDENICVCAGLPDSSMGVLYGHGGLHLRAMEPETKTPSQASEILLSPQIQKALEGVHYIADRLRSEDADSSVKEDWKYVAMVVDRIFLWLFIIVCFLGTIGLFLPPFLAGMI
Sequence of rat α2β2 nAChR (P12390 25-500 limits assumed): as the sequence (P12390 25-500 limits assumed) above
Sequence of rat α2β4 nAChR (P12389 28-511 limits assumed): as the sequence (P12389 28-511 limits assumed) above
Sequence of rat α2β4 nAChR (P12392 21-495 limits assumed): as the sequence (P12392 21-495 limits assumed) above

With `CC(C)C[C@@H]1NC(=O)[C@H](CC(=O)O)NC(=O)[C@H](CO)NC(=O)[C@H](Cc2c[nH]cn2)NC(=O)[C@H](CCC(N)=O)NC(=O)[C@H](C(C)C)NC(=O)[C@H](CCC(N)=O)NC(=O)[C@@H]2CSSC[C@H](N)C(=O)N[C@@H](CSSC[C@@H](C(=O)O)NC1=O)C(=O)N[C@@H](CO)C(=O)N[C@@H](CC(N)=O)C(=O)N1CCC[C@H]1C(=O)N[C@@H](C)C(=O)N2` [Δ-CIC] (H-CCSNPACQVQHSDLC-OH; disulfide 1-7, 2-15), the IC50 against rat α2β2 nAChR was > 10 µM; at rat α2β4 nAChR it was > 10 µM; against human α9α10 nAChR, > 10 µM; at rat α4β4 nAChR, > 10 µM; on rat α4β2 nAChR, > 10 µM; at rat α6/α3β2β3 nAChR, 1.08 µM. Besides, the IC50 was 4.56 µM on rat α3β2 nAChR, > 10 µM against rat α3β4 nAChR and > 10 µM at rat α7 nAChR. The “inhibition (in words)” value against rat α2β2 nAChR, against rat α2β4 nAChR, against human α9α10 nAChR, against rat α4β4 nAChR, against rat α4β2 nAChR and against rat α3β4 nAChR was “no inhibition was detected; also recorded: No effects were observed” in each case. The “inhibition (in words)” value on rat α7 nAChR is “no inhibition was detected; also recorded: No effects were observed”. In test [1], the “dissociation behavior, CIC versus Δ-CIC” value is listed as “no difference in dissociation behavior”.
